From patent publication US8987249B2, “Substituted 2-Aza-bicyclo[2.2.1]heptane-3-carboxylic acid (benzyl-cyano-methyl)-amides inhibitors of Cathepsin C” (Boehringer Ingelheim International GmbH, priority 2013, dated 2015)
pIC50: −log10 of the molar value.

Biological target: recombinant human DPPI (Cathepsin C) (Homo sapiens (Human), UniProt P53634)
Experiment: Inhibition of human DPPI (Cathepsin C)
Type: biochemical
Settings: substrate Gly-Arg-AMC
Method: Inhibition of Human DPPI (Cathepsin C)
Bovine serum albumin (BSA; Prod. No. A3059) and Dithiothreitol (DTT; Prod. No D0632) were from Sigma. […] The DPP1 inhibitor Gly-Phe-DMK was purchased from MP Biomedicals (Prod.-No. 03DK00625). The recombinant human DPPI was purchased from Prozymex. All other materials were of highest grade commercially available.
The following buffers were used: MES buffer: 25 mM MES, 50 mM NaCl, 5 mM DTT, adjusted to pH 6.0, containing 0.1% BSA; TAGZyme Buffer: 20 mM NaH2PO4, 150 mM NaCl adjusted to pH 6.0 with HCl
Then, 5 μL of substrate in MES buffer (final concentration 50 μM) were added. The microtiter plates were then incubated at room temperature for 30 min. Then, the reaction was stopped by adding 10 μL of Gly-Phe-DMK in MES-buffer (final concentration 1 μM).
The analysis of the data was performed by calculating the percentage of fluorescence in the presence of test compound in comparison to the fluorescence of the vehicle control after subtracting the background fluorescence using the following formula: (RFU(sample)−RFU(background))*100/(RFU(control)−RFU(background))
Data from these calculations were used to generate IC50 values for inhibition of DPPI, respectively.

Chain of recombinant human DPPI (Cathepsin C) (P53634 231-394): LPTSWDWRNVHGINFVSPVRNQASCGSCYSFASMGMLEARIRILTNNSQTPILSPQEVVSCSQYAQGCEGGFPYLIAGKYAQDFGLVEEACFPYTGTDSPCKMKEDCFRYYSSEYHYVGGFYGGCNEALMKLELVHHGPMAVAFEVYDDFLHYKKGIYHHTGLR
Chain of recombinant human DPPI (Cathepsin C) (P53634 395-463): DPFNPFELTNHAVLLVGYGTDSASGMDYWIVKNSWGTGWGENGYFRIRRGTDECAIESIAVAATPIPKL
Chain of recombinant human DPPI (Cathepsin C) (P53634 25-134): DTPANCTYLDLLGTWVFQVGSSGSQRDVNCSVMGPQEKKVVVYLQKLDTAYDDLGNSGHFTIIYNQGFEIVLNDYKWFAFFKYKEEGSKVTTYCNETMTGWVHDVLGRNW

| SMILES | pIC50 |
| --- | --- |
| N#CC(Cc1cccc2[nH]c(=O)c3cc(F)ccc3c12)NC(=O)[C@H]1N[C@@H]2CC[C@H]1C2 (some centres unmarked) [Example 215] | 6.05 |
| N#C[C@H](Cc1ccc2ccccc2c1)NC(=O)[C@H]1N[C@@H]2CC[C@H]1C2 [Example 220] | 6.60 |
| COCCN1CCC(c2ccc(C[C@@H](C#N)NC(=O)[C@H]3N[C@@H]4CC[C@H]3C4)c(F)c2)C1 (some centres unmarked) [Example 350] | 7.41 |
| Cn1cc2ccc(-c3ccc(C[C@@H](C#N)NC(=O)[C@H]4N[C@H]5C[C@@H]4[C@@H]4C[C@@H]45)c(F)c3)cc2n1 [Example 135] | 6.54 |
| CN1C(=O)Cc2ccc(-c3ccc(CC(C#N)NC(=O)[C@H]4N[C@@H]5CC[C@H]4C5)c(OCc4ccccc4)c3)cc21 (some centres unmarked) [Example 122] | 6.74 |
| CC(C)N1CCC(c2ccc(C[C@@H](C#N)NC(=O)[C@H]3N[C@@H]4CC[C@H]3C4)c(F)c2)CC1 [Example 280] | 7.67 |
| N#C[C@H](Cc1ccc(N2CCC3COCC3C2)cc1F)NC(=O)[C@H]1N[C@@H]2CC[C@H]1C2 (some centres unmarked) [Example 352] | 7.76 |
| N#Cc1ccc(-c2ccc(C[C@@H](C#N)NC(=O)[C@H]3N[C@H]4C[C@@H]3[C@@H]3C[C@@H]34)c(F)c2)cn1 [Example 142] | 7.20 |
| CCOc1cc(-c2ccc(C[C@@H](C#N)NC(=O)[C@H]3N[C@@H]4CC[C@H]3C4)c(F)c2)cc(S(C)(=O)=O)c1 [Example 275] | 7.48 |
| Cn1c(=O)oc2ccc(-c3ccc(C[C@@H](C#N)NC(=O)[C@H]4N[C@H]5C[C@@H]4[C@@H]4C[C@@H]45)c(F)c3)cc21 [Example 129] | 7.08 |
| N#CC(Cc1ccc2[nH]ncc2c1)NC(=O)[C@H]1N[C@@H]2CC[C@H]1C2 (stereo partly drawn) [Example 8, (1S,2S,4R)—N-[1-cyano-2-(1H-indazol-5-yl)ethyl]-3-azabicyclo[2.2.1]heptane-2-carboxamide] | 6.17 |
| N#CC(Cc1ccc2[nH]c3ccccc3c2c1)NC(=O)[C@H]1N[C@@H]2CC[C@H]1C2 (some centres unmarked) [Example 213] | 6.21 |
| N#C[C@H](Cc1ccc(N2C3CCC2CN(C2CCOC2)C3)cc1F)NC(=O)[C@H]1N[C@@H]2CC[C@H]1C2 (some centres unmarked) [Example 329] | 8.15 |
| N#C[C@H](Cc1cc(-c2cccc(O)n2)ccc1F)NC(=O)[C@H]1N[C@@H]2CC[C@H]1C2 [Example 317] | 7.28 |
| N#CC(Cc1ccc2c(c1)[nH]c(=O)c1ccccc12)NC(=O)[C@H]1N[C@@H]2CC[C@H]1C2 (stereo partly drawn) [Example 123, (1S,2S,4R)—N-[1-cyano-2-(6-oxo-5H-phenanthridin-3-yl)ethyl]-3-azabicyclo[2.2.1]heptane-2-carboxamide] | 6.73 |
| CN(C)CCn1ccc(-c2ccc(C[C@@H](C#N)NC(=O)[C@H]3N[C@@H]4CC[C@H]3C4)c(F)c2)cc1=O [Example 256] | 7.58 |
| CCc1cc(-c2ccc(C[C@@H](C#N)NC(=O)[C@H]3N[C@@H]4CC[C@H]3C4)c(F)c2)nn1CC(C)C [Example 273] | 7.54 |
| CN1CCO[C@@H]2CCN(c3ccc(C[C@@H](C#N)NC(=O)[C@H]4N[C@@H]5CC[C@H]4C5)c(F)c3)C[C@@H]21 [Example 356] | 7.70 |
| CC(C)OCc1cn(-c2ccc(C[C@@H](C#N)NC(=O)[C@H]3N[C@@H]4CC[C@H]3C4)c(F)c2)nn1 [Example 124] | 6.73 |
| CN1CCO[C@H]2CN(c3ccc(C[C@@H](C#N)NC(=O)[C@H]4N[C@@H]5CC[C@H]4C5)c(F)c3)CC[C@@H]21 [Example 357] | 7.47 |
| N#CC(Cc1cccc2[nH]c(=O)c3ccccc3c12)NC(=O)[C@H]1N[C@@H]2CC[C@H]1C2 (stereo partly drawn) [Example 128, (1S,2S,4R)—N-[1-cyano-2-(6-oxo-5H-phenanthridin-1-yl)ethyl]-3-azabicyclo[2.2.1]heptane-2-carboxamide] | 5.62 |
| CN(C)CCN1C(=O)Cc2cc(-c3ccc(C[C@@H](C#N)NC(=O)[C@H]4N[C@@H]5CC[C@H]4C5)c(F)c3)ccc21 [Example 279] | 8.26 |
| N#CC(Cc1ccc2oc3ccccc3c2c1)NC(=O)[C@H]1N[C@@H]2CC[C@H]1C2 (some centres unmarked) [Example 212] | 6.53 |
| CN1C(=O)Cc2ccc(-c3ccc(CC(C#N)NC(=O)[C@H]4N[C@@H]5CC[C@H]4C5)c(O)c3)cc21 (some centres unmarked) [Example 120] | 7.25 |
| N#C[C@H](Cc1ccc(OCc2ccccc2)cc1F)NC(=O)[C@H]1N[C@@H]2CC[C@H]1C2 [Example 290] | 7.69 |
| N#CC(Cc1ccc2c(cnc3ccccc32)c1)NC(=O)[C@H]1N[C@@H]2CC[C@H]1C2 (some centres unmarked) [Example 316] | 7.37 |
| N#C[C@H](Cc1ccc(N2CCN(C3CCOCC3)CC2)cc1F)NC(=O)[C@H]1N[C@@H]2CC[C@H]1C2 [Example 336] | 7.61 |
| Cn1c(=O)c2cc(CC(C#N)NC(=O)[C@H]3N[C@@H]4CC[C@H]3C4)ccc2c2ccccc21 (some centres unmarked) [Example 206] | 7.58 |
| N#C[C@H](Cc1ccc(C2CCCN(C3CCOC3)C2)cc1F)NC(=O)[C@H]1N[C@@H]2CC[C@H]1C2 (some centres unmarked) [Example 338] | 7.35 |

Results, then the molecule that gave them:

| pIC50 | SMILES |
| --- | --- |
| 8.07 | CN1Cc2ccc(-c3ccc(C[C@@H](C#N)NC(=O)[C@H]4N[C@@H]5CC[C@H]4C5)c(F)c3)cc2C1 [Example 1, (1S,2S,4R)—N-[(1S)-1-cyano-2-[2-fluoro-4-(2-methylisoindolin-5-yl)phenyl]ethyl]-3-azabicyclo[2.2.1]heptane-2-carboxamide] |
| 8.38 | CN(C)C(=O)c1cc(-c2ccc(C[C@@H](C#N)NC(=O)[C@H]3N[C@@H]4CC[C@H]3C4)c(F)c2)cs1 [Example 170] |
| 8.57 | N#C[C@H](Cc1ccc(-c2csc(C(=O)N3CCCC3)c2)cc1F)NC(=O)[C@H]1N[C@@H]2CC[C@H]1C2 [Example 165] |
| 8.25 | N#C[C@H](Cc1ccc(-c2cnc3cccnn23)cc1F)NC(=O)[C@H]1N[C@@H]2CC[C@H]1C2 [Example 174] |
| 7.81 | N#C[C@H](Cc1ccc(N2CCCCC2)cc1F)NC(=O)[C@H]1N[C@@H]2CC[C@H]1C2 [Example 197] |
| 7.77 | CS(=O)(=Nc1cccc(-c2ccc(C[C@@H](C#N)NC(=O)[C@H]3N[C@@H]4CC[C@H]3C4)c(F)c2)c1)C1CCOCC1 (some centres unmarked) [Example 264] |
| 7.83 | CC1(C)CCN(c2ccc(C[C@@H](C#N)NC(=O)[C@H]3N[C@@H]4CC[C@H]3C4)c(F)c2)CC1 [Example 195] |
| 8.92 | CN1CCN(S(=O)(=O)c2cccc(-c3ccc(C[C@@H](C#N)NC(=O)[C@H]4N[C@@H]5CC[C@H]4C5)c(F)c3)c2)CC1 [Example 224] |
| 9.00 | CC(C)N1CCN(C(=O)c2cc(-c3ccc(C[C@@H](C#N)NC(=O)[C@H]4N[C@@H]5CC[C@H]4C5)c(F)c3)cs2)CC1 [Example 227] |
| 8.43 | N#C[C@H](Cc1ccc(-c2ccc(S(=O)(=O)N3CCOCC3)cc2)cc1F)NC(=O)[C@H]1N[C@@H]2CC[C@H]1C2 [Example 217] |
| 8.00 | COC(=O)c1cccc2c1[nH]c(=O)c1cc(CC(C#N)NC(=O)[C@H]3N[C@@H]4CC[C@H]3C4)ccc12 (some centres unmarked) [Example 311] |
| 8.28 | CCOc1nc(-c2ccc(C[C@@H](C#N)NC(=O)[C@H]3N[C@@H]4CC[C@H]3C4)c(F)c2)cs1 [Example 172] |
| 8.04 | N#Cc1ccc2c(c1)[nH]c(=O)c1cc(CC(C#N)NC(=O)[C@H]3N[C@@H]4CC[C@H]3C4)ccc12 (some centres unmarked) [Example 309] |
| 7.85 | COCC(=O)n1cc(-c2ccc(C[C@@H](C#N)NC(=O)[C@H]3N[C@@H]4CC[C@H]3C4)c(F)c2)cn1 [Example 87] |
| 8.77 | Cc1nn(C)cc1-c1ccc(C[C@@H](C#N)NC(=O)[C@H]2N[C@@H]3CC[C@H]2C3)c(F)c1 [Example 160] |
| 8.22 | N#CC(Cc1ccc2c(c1)c(=O)[nH]c1ccc(Cl)cc12)NC(=O)[C@H]1N[C@@H]2CC[C@H]1C2 (some centres unmarked) [Example 304] |
| 8.32 | N#C[C@H](Cc1ccc(-c2cnn(S(=O)(=O)c3ccccc3)c2)cc1F)NC(=O)[C@H]1N[C@@H]2CC[C@H]1C2 [Example 243] |
| 8.43 | N#C[C@H](Cc1ccc(-c2cnn3cccnc23)cc1F)NC(=O)[C@H]1N[C@@H]2CC[C@H]1C2 [Example 168] |
| 8.68 | Cn1cc(-c2ccc(C[C@@H](C#N)NC(=O)[C@H]3N[C@@H]4CC[C@H]3C4)c(F)c2)cn1 [Example 163] |
| 8.89 | CN1CCN(S(=O)(=O)c2cc(-c3ccc(C[C@@H](C#N)NC(=O)[C@H]4N[C@@H]5CC[C@H]4C5)c(F)c3)ccc2F)CC1 [Example 339] |
| 8.13 | N#C[C@H](Cc1ccc(-c2ccc(S(=O)(=O)N3CCCCC3)cc2)cc1F)NC(=O)[C@H]1N[C@@H]2CC[C@H]1C2 [Example 177] |
| 9.05 | N#C[C@H](Cc1ccc(-c2csc(C(=O)N3CCn4nccc4C3)c2)cc1F)NC(=O)[C@H]1N[C@@H]2CC[C@H]1C2 [Example 226] |
| 7.80 | COC(=O)c1cc(C)c(-c2ccc(C[C@@H](C#N)NC(=O)[C@H]3N[C@@H]4CC[C@H]3C4)c(F)c2)s1 [Example 198] |
| 8.64 | CCCNC(=O)c1cc(-c2ccc(C[C@@H](C#N)NC(=O)[C@H]3N[C@@H]4CC[C@H]3C4)c(F)c2)cs1 [Example 164] |
| 8.01 | N#C[C@H](Cc1ccc(N2CCN(C3CC3)CC2)cc1F)NC(=O)[C@H]1N[C@@H]2CC[C@H]1C2 [Example 187] |
| 8.49 | COC(=O)c1ccc2[nH]c(=O)c3cc(CC(C#N)NC(=O)[C@H]4N[C@@H]5CC[C@H]4C5)ccc3c2c1 (some centres unmarked) [Example 299] |
| 8.74 | CN1CCCN(S(=O)(=O)c2ccc(-c3ccc(C[C@@H](C#N)NC(=O)[C@H]4N[C@@H]5CC[C@H]4C5)c(F)c3)cc2)CC1 [Example 340] |
